In patent publication US8603532B2, “Nanostructures for drug delivery” (priority 2008, dated 2013):
Where two headings read alike, the source gives them in different places.

Experiments:
Male Sprague Dawley Rats = test: Maximum tolerated dose (MTD) study, intravenous; assay type: in vivo; settings: for Death: 3 rats; for dose tolerated by the rats / MTD: i.v.; for dose tolerated by the rats: survival; for MTD: 14 days monitoring
Text: The maximum tolerated dose (MTD) of chemotherapeutic agents may be a critical factor for achieving optimal therapeutic benefit. The effectiveness of chemotherapeutic agents is generally proportional to the dose of the agents at their targets; however, the dose may be limited by systemic toxicity. In this non-limiting example, the therapeutic effectiveness of a platinum(IV) prodrug was attempted to be increased by increasing the maximum tolerated dose (MTD) of the prodrug by using a polymeric nanoparticle drug delivery systems. Various doses of cisplatin, Pt(IV)-prodrug (compound 1 from Example 1), Pt—NP (from Example 1), or PLGA-PEG-NP (control, nanoparticles not comprising platinum complexes) were injected intravenously and the MTD was estimated based on the threshold at which all […] survived.
Male Sprague Dawley Rats were used for MTD determination with intravenous administration. All rats treated with plain nanoparticles tolerated these doses. In the Pt—NP group, rats receiving doses up to 40 mg/kg tolerated the dose, but two of three in the 50 and 60-mg/kg groups died. Only the dose of 20 mg/kg free cisplatin or Pt(IV)-prodrug were tolerated by the rats. To further define the MTD, overall toxicity was monitored for 14 days. As a sign of toxicity, the body weights of rats were measured.

[1] = 1 h post administration, literature value; cited from earlier work
PSMA+ LNCaP cells = test: In vitro cytotoxicity, MTT assay; assay type: cell-based, human; settings: 72 h
Procedure: (§1) A series of in vitro cytotoxicity assays were performed to understand the anti-cancer properties of platinum(IV)-encapsulated nanoparticles, using human prostate cancer cells, and directly compared its efficacy to that of free cisplatin. The choice of the cancer cells was based on the presence of PSMA, as mentioned before. […] As shown in this figure, the Pt(IV)encapsulated polymeric nanoparticles containing PSMA aptamers on the surface (Pt—NP-Apt) were highly cytotoxic to the LNCaP cells, which up-regulate PSMA on the surface, giving an IC50 value of 0.03 μM. […] The PSMA^+ aptamer targeted Pt(IV)-encapsulated PLGA-b-PEG nanoparticles (Pt—Np-Apt) were 80 times more toxic in the PSMA LNCaP cells, indicating potential application of these nanoparticles in human prostate cancer.

PC3 cells = test: In vitro cytotoxicity, MTT assay; assay type: cell-based, human; settings: 72 h
Procedure: as §1

[2] = Cyclic voltammetry, Pt(IV)/Pt(II) reduction potential; assay type: physicochemical
Procedure: The identity of the platinum species released from the polymeric nanoparticles was determined by ESI-MS. […] The redox potentials were also investigated for reduction of compound 1 at various pH values. […] NPs before reaching the nuclear DNA.

[3] = Blood circulation and excretion studies; assay type: in vivo; settings: rat, 2 mg/kg i.v., 1 h post administration
Procedure: Male Sprague Dawley rats were used in this study. Separate groups of animals received i.v. injections of Pt—NP (2 mg/kg) or Pt(IV)-prodrug (2 mg/kg) and were placed in metabolism cages. Blood was collected at predetermined time points in heparinized tubes. Whole organs or representative tissue samples were removed and weighed where necessary. Urine was collected for 24 h. Plasma was obtained from the blood samples by […]. Samples were analyzed for their platinum content using a Perkin Elmer Flameless Atomic Absorption Spectrophotometer.

Substance	Death (Male Sprague Dawley Rats; 5 mg/kg i.v.)	Death (Male Sprague Dawley Rats; 10 mg/kg i.v.)	Death (Male Sprague Dawley Rats; 20 mg/kg i.v.)	Death (Male Sprague Dawley Rats; 40 mg/kg i.v.)	dose tolerated by the rats (Male Sprague Dawley Rats)	MTD (Male Sprague Dawley Rats; rats)	platinum dose remaining in the systemic circulation [1]	IC50 (PSMA+ LNCaP cells)	IC50 (PC3 cells)	body weight change (Male Sprague Dawley Rats; rats, up to 20 mg/kg, 14 days)	Pt(IV)/Pt(II) couple, irreversible cyclic voltammetric response ([2]; 1:4 DMF-sodium phosphate buffer, pH 6.0)	Pt(IV)/Pt(II) couple, irreversible cyclic voltammetric response ([2]; 1:4 DMF-sodium phosphate buffer, pH 7.4)	Pt(IV)/Pt(II) couple, irreversible cyclic voltammetric response ([2]; MeCN-0.1 M TBAPF6)	platinum dose remaining in the systemic circulation [3]
[cis-Pt(NH3)2Cl2] [cisplatin, reference compound]	0	0	0	3	20 mg/kg	20 mg/kg	1.5%	2400 nM	180 nM					
c,c,t-[Pt(NH3)2(O2CCH2CH2CH2CH2CH2)2Cl2] [compound 1]	0	0	0	2	20 mg/kg	20 mg/kg				did not show any weight loss	~−0.243 V vs. NHE	~−0.233 V vs. NHE	~−0.805 V vs. NHE	15.6%
